Measurements as given in US6869960B2, “N-substituted spiropiperidine compounds as ligands for ORL-1 receptor” (Pfizer Inc., priority 2002, dated 2005).

Biological target: T1, human ORL1 receptor (Homo sapiens, UniProt P41146)
T1 construct: expressed in transfected cells; host or cells: HEK-293 cell membranes
Assay: ORL1 receptor functional assay ([35S]GTPγS binding, nociceptin stimulated)
Assay type: biochemical
Conditions: at 10 nM nociceptin stimulation; human ORL1 receptor transfected HEK-293 cell membranes
Protocol: IC50(ORL1-receptors)nM/IC50(mu-receptors)nM<1.0 ORL1 Receptor Functional Assay • The human ORL1 receptor transfected HEK-293 cell membranes are incubated with 400 pM [^35S]GTPγS, 10 or 50 nM nociceptin and various concentrations of test compounds in assay buffer (20 mM HEPES, 100 mM NaCl, 5 mM MgCl2, 1 mM EDTA, […], 1 mM DTT, pH7.4) containing 1.5 mg of wheat germ agglutinin-coated SPA beads for 60 or 90 min at 25° C. in a final volume of 200 μl. Basal binding is assessed in the absence of nociceptin and non-specific binding is defined by the addition of unlabelled […]. Membrane-bound radioactivity is detected by a Liquid Scintillation Counter. […] Analgesic Tests Tail Flick Test in Mice • The latency time to withdrawal f the tail from radiant heat stimulation is recorded before and after administration of test compounds. Cut-off time is set to 8 sec. Acetic Acid Writhing Test in Mice • Acetic acid saline solution of 0.7% (v/v) is injected intraperitoneally (0.16 ml/10 g body weight) to mice. Test compounds are administered before acetic acid injection. As soon as acetic acid injection, animals are placed in a 1 liter beaker and writhing is recorded for 15 min. Formalin Licking Test in Mice • Formalin-induced hind paw licking is initiated by a 20 micro liters subcutaneous injection of a 2% formaline solution into a hind paw of mice. […]

T1 sequence (P41146 whole entry): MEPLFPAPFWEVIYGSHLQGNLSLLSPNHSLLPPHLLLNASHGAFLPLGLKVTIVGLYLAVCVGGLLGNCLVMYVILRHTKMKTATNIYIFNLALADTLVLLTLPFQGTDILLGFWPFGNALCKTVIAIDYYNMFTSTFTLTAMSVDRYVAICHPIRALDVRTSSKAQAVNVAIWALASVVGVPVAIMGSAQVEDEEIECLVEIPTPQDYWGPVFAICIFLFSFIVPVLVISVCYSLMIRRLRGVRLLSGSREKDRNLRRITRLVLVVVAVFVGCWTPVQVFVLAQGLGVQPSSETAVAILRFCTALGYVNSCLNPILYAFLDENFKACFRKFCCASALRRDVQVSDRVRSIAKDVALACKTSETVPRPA

SMILES | IC50 [nM]
CN1CC2(CCN(CC3Cc4cccc(O)c4NC3=O)CC2)c2ccccc21 (centres unmarked) [Example 31, 8-Hydroxy-3-[(1-methyl-1,2-dihydro-1′H-spiro[indole-3,4′-piperidin]-1′-yl)methyl]-3,4-dihydroquinolin-2(1H)-one] | 13
O=C1COc2cccc3c2N1CC(CN1CCC2(CCc4ccccc42)CC1)C3 (centres unmarked) [Example 20, 6-(2,3-Dihydro-1′H-spiro[indene-1,4′piperidin]-1′-ylmethyl)-6,7-dihydro-5H-[1,4]oxazino[2,3,4-ij]quinolin-3(2H)-one] | 13
